{"source": "patent US20060148776A1", "about": "“Drug formulations having long and medium chain triglycerides” (Conforma Therapeutics Corporation, priority 2003, published 2006)", "key": {"[1]": {"test": "Characterisation and storage stability of 17-AAG emulsion (droplet size, drug load, degradants)", "assay_type": "physicochemical", "description": "EDTA (disodium, dihydrate, USP), sucrose, and water for injection (WFI) are weighed into a 5 L polypropylene beaker and stirred until the solids are dissolved. The aqueous phase is then added to the oil phase and thorough mixing effected using a high-speed emulsifier equipped with an emulsion head at 5000 RPM until the oil adhering to the surface is “stripped off.” Shearing rate is then increased to 10000 RPM for 2-5 minutes to obtain a uniform primary emulsion. Laser light scattering (LLS) may be used to measure the average droplet size, and the solution may further be checked, e.g., under an optical microscope to determine the relative presence or absence of crystals and solids.\nThe emulsion pH is adjusted to 6.0±0.2 with 0.2N NaOH. The primary emulsion is then passed through a Model 11OS microfluidizer (Microfluidics Inc., Newton, Mass., USA) operating at static pressure of about 110 psi (operating pressure of 60-95 psi) with a 75-micron emulsion interaction chamber (F20Y) for 6-8 passages until the average droplet size is ≦190 nm. LLS may be used following the individual passages to evaluate progress. The solution may further be checked for the presence of crystals using polarized light under an optical microscope."}, "[2]": {"details": "daily 1-hour infusion for 5 days every three weeks; cited from earlier work"}}}
{"molecule": "C=CCNC1=C2CC(C)CC(OC)C(O)C(C)/C=C(\\C)C(OC(N)=O)C(OC)/C=C\\C=C(/C)C(=O)NC(=CC1=O)C2=O", "note": "(stereo not shown) [Compound 17-AAG, 17-allylaminogeldanamycin]", "values": [{"measurement": "concentration achieved in the oil phase alone", "setting": "[1]; oil phase alone", "value": "20000 to 30000", "unit": "µg/mL"}, {"measurement": "time until degradants of 17-AAG are seen", "setting": "[1]; stored at 40° C.", "value": "approximately 2 weeks"}, {"measurement": "concentration achieved overall", "setting": "[1]; whole emulsion", "value": "≤ 3000", "unit": "µg/mL"}, {"measurement": "maximum tolerated dose (MTD)", "setting": "[2]", "value": 40, "unit": "mg/m^2"}]}
